Values joined by “and” are separate entries in the source; they are usually repeats but may differ in a detail not shown here. Equal entries are not always repeated. Records with an inconclusive call do not appear.
Test system: B6C3F1 mice, colon carcinoma 38 s.c., T/C
Experiment: NCI In Vivo Anticancer Drug Screen. Data for tumor model Colon Carcinoma 38 (subcutaneous) in B6C3F1 mice
Conditions: higher = larger tumour
Experimental: The antitumor activity of compounds was measured in mice bearing transplantable tumors. Survival or tumor size were measured and the results are expressed as the measurement made in the treated group (T) divided by the measurement made in the vehicle treated control group (C). The tumor model used in this assay is Colon Carcinoma 38 (subcutaneous) in B6C3F1 mice

[1] = endpoint: median tumor weight (est.), dose: 100.0 mg/kg/injection, schedule: Q07DX002 (ip), vehicle: saline with Tween-80
[2] = endpoint: median tumor weight (est.), dose: 200.0 mg/kg/injection, schedule: Q07DX002 (ip), vehicle: saline with Tween-80
[3] = endpoint: median tumor weight (est.), dose: 50.0 mg/kg/injection, schedule: Q07DX002 (ip), vehicle: Klucel (hydroxypropylcellulose) (HPC)
[4] = endpoint: median tumor weight (est.), dose: 100.0 mg/kg/injection, schedule: Q07DX002 (ip), vehicle: Klucel (hydroxypropylcellulose) (HPC)
[5] = endpoint: median tumor weight (est.), dose: 200.0 mg/kg/injection, schedule: Q07DX002 (ip), vehicle: Klucel (hydroxypropylcellulose) (HPC)
[6] = endpoint: median tumor weight (est.), dose: 400.0 mg/kg/injection, schedule: Q07DX002 (ip), vehicle: Klucel (hydroxypropylcellulose) (HPC)

## O=C(CCBr)N1CCN(C(=O)CCBr)CC1
endpoint: median tumor weight (est.), dose: 40.0 mg/kg/injection, schedule: Q07DX002 (ip), vehicle: saline with Tween-80
  T/C: 81 % of control
endpoint: median tumor weight (est.), dose: 80.0 mg/kg/injection, schedule: Q07DX002 (ip), vehicle: saline with Tween-80
  T/C: 20 % of control and 33 % of control
endpoint: median tumor weight (est.), dose: 320.0 mg/kg/injection, schedule: Q07DX002 (ip), vehicle: saline with Tween-80
  T/C: 6 % of control

## COc1ccc(S(=O)(=O)N=N/C=C2\C=CC=CN2O)cc1OC
endpoint: median tumor weight (est.), dose: 50.0 mg/kg/injection, schedule: Q07DX002 (ip), vehicle: saline with Tween-80
  T/C: 175 % of control
[1]
  T/C: 91 % of control
[2]
  T/C: 166 % of control

## O=S(=O)([O-])c1ccc(-c2c3nc(c(-c4ccc(S(=O)(=O)[O-])cc4)c4ccc([n-]4)c(-c4ccc(S(=O)(=O)[O-])cc4)c4nc(c(-c5ccc(S(=O)(=O)[O-])cc5)c5ccc2[n-]5)C=C4)C=C3)cc1.[Mn+3].[Na+]
endpoint: median tumor weight change, dose: 226.9 mg/kg/injection, schedule: Q07DX002 (iv), vehicle: water
  T/C: 67 % of control
endpoint: median tumor weight change, dose: 340.9 mg/kg/injection, schedule: Q07DX002 (iv), vehicle: water
  T/C: 77 % of control
endpoint: median tumor weight change, dose: 515.0 mg/kg/injection, schedule: Q07DX002 (iv), vehicle: water
  T/C: 110 % of control

## Oc1c(Cl)cc(Cl)cc1C=NCCSc1ccc(Cl)cc1
[3]
  T/C: 118 % of control
[4]
  T/C: 81 % of control
[5]
  T/C: 109 % of control
[6]
  T/C: 63 % of control

## Cc1c2cc[n+](CCN3CCCCC3)cc2c(C)c2c1[nH]c1ccc(O)cc12
endpoint: median tumor weight (est.), dose: 6.25 mg/kg/injection, schedule: Q07DX002 (ip), vehicle: suspension in saline
  T/C: 83 % of control
endpoint: median tumor weight (est.), dose: 12.5 mg/kg/injection, schedule: Q07DX002 (ip), vehicle: suspension in saline
  T/C: 71 % of control
endpoint: median tumor weight (est.), dose: 25.0 mg/kg/injection, schedule: Q07DX002 (ip), vehicle: suspension in saline
  T/C: 62 % of control
endpoint: median tumor weight (est.), dose: 50.0 mg/kg/injection, schedule: Q07DX002 (ip), vehicle: suspension in saline
  T/C: 53 % of control
endpoint: median tumor weight (est.), dose: 100.0 mg/kg/injection, schedule: Q07DX002 (ip), vehicle: suspension in saline
  T/C: 34 % of control

## N=c1ccn2c(n1)OC1C(O)C(CO)OC12 (configuration not stated)
endpoint: median tumor weight (est.), dose: 100.0 mg/kg/injection, schedule: Q07DX003 (ip), vehicle: saline
  T/C: 90 % of control
endpoint: median tumor weight (est.), dose: 200.0 mg/kg/injection, schedule: Q07DX003 (ip), vehicle: saline
  T/C: 98 % of control
endpoint: median tumor weight (est.), dose: 400.0 mg/kg/injection, schedule: Q07DX003 (ip), vehicle: saline
  T/C: 92 % of control
endpoint: median tumor weight (est.), dose: 800.0 mg/kg/injection, schedule: Q07DX003 (ip), vehicle: saline
  T/C: 61 % of control
endpoint: median tumor weight (est.), dose: 1600.0 mg/kg/injection, schedule: Q07DX003 (ip), vehicle: saline
  T/C: 40 % of control

## CN(C)c1ccc2c(SCC(=O)OCC(=O)[C@@]3(O)CC[C@H]4[C@@H]5CCC6=CC(=O)C=C[C@]6(C)[C@H]5C(=O)C[C@@]43C)c3ccc(N(C)C)cc3nc2c1
[3]
  T/C: 105 % of control
[4]
  T/C: 78 % of control
[5]
  T/C: 81 % of control
[6]
  T/C: 82 % of control
endpoint: median tumor weight (est.), dose: 800.0 mg/kg/injection, schedule: Q07DX002 (ip), vehicle: Klucel (hydroxypropylcellulose) (HPC)
  T/C: 16 % of control

## NC(Cn1ccc(=O)c(O)c1)C(=O)O (configuration not stated)
endpoint: median tumor weight (est.), dose: 100.0 mg/kg/injection, schedule: Q07DX002 (ip), vehicle: saline
  T/C: 97 % of control
endpoint: median tumor weight (est.), dose: 400.0 mg/kg/injection, schedule: Q07DX002 (ip), vehicle: saline
  T/C: 54 % of control
endpoint: median tumor weight (est.), dose: 800.0 mg/kg/injection, schedule: Q07DX002 (ip), vehicle: saline
  T/C: 156 % of control

## C[C@@H]1CC[C@]2(C)CC[C@]3(C)C(=CC[C@@H]4[C@@]5(C)CC[C@@H](OC(=O)c6ccc(O)cc6)C(C)(C)[C@@H]5C[C@H](O)[C@]43C)[C@@H]2[C@H]1C(=O)O
endpoint: median tumor weight (est.), dose: 0.12 mg/kg/injection, schedule: Q07DX002 (ip), vehicle: saline with Tween-80
  T/C: 164 % of control
endpoint: median tumor weight (est.), dose: 0.5 mg/kg/injection, schedule: Q07DX002 (ip), vehicle: saline with Tween-80
  T/C: 49 % of control
endpoint: median tumor weight (est.), dose: 1.0 mg/kg/injection, schedule: Q07DX002 (ip), vehicle: saline with Tween-80
  T/C: 50 % of control
endpoint: median tumor weight (est.), dose: 2.0 mg/kg/injection, schedule: Q07DX002 (ip), vehicle: saline with Tween-80
  T/C: 50 % of control

## CN(C)C1C(=O)C(C(=O)NP(=O)(NCCCO)N(CCCl)CCCl)=C(O)C2(O)C(=O)C3=C(O)c4c(O)cccc4C(C)(O)C3CC12 (configuration not stated)
[1]
  T/C: 176 % of control
[2]
  T/C: 42 % of control
